Results on one compound are retold here after patent US20180071284A1, “PREVENTING OR TREATING VIRAL INFECTION BY INHIBITION OF THE HISTONE METHYLTRANSFERASE EZH1 OR EZH2” (The United States of America, as represented by the …, priority 2015, published 2018).

Common to all, as to format: cell-based, herpes simplex virus 1 (HSV-1)
Assay [1] has as its system HSV-1. The assay can be described thus: HSV-1 viral IE mRNA levels in infected Vero (IFN-β null, IRF3 deficient) cells. As to conditions: 5-hrs pretreatment, HSV-1 2.0 PFU per cell. As for the experimental part:
HFF (wild-type) and Vero (IFN-β null, IRF3 deficient) cells were treated with the indicated concentration of EZH1/2 catalytic inhibitor (compound 1 or 4) or DMSO (vehicle) for 5-hrs. HFF and Vero cells were then infected with HSV-1 (2.0 PFU per cell) for 1.5-hrs in the presence of inhibitor or DMSO. The levels of HSV viral IE (ICP0, ICP4, ICP22, and ICP27) and cellular control (SP1 and TBP) mRNAs are expressed relative to cells treated with DMSO (vehicle).

In assay [2] the test system is HSV-1. The assay is described as follows: Mouse trigeminal ganglia explant reactivation model, viral yield titrated on Vero cells. Conditions: explant 48-hrs; compound 1 35 μM, compound 3 30 μM, compound 4 30 μM. How it is done:
Trigeminal ganglia from HSV-1 latently infected mice were bisected. Half were explanted in media with control DMSO (vehicle), and the other half were explanted in media with ACV (100 μM), ML324 (50 μM), compound 1 (35 μM), compound 3 (30 μM), or compound 4 (30 μM) for 48-hrs to induce viral reactivation. Viral yields were determined by titrating on Vero cells. Each point represents the titer of one explanted trigeminal ganglia.

Assay [3] relates to HSV-1. The assay can be described thus: HSV-1 viral IE mRNA levels in infected HFF cells. The source says: The HFF cells were then infected with HSV-1 [2.0 PFU (plaque-forming units) per cell] for 1.5-hrs in the presence of inhibitor or DMSO. […] In the figures, the levels of HSV viral IE (ICP4, ICP22, and ICP27) and cellular control (TBP and SP1) mRNAs are expressed relative to cells treated with DMSO (vehicle). […] The HFF cells were then infected with HSV-1 (2.0, 5.0, and 10.0 PFU per cell) for 1.5-hrs in the presence of the inhibitor or DMSO. The levels of HSV viral IE (ICP0, ICP4, ICP22, and ICP27) and cellular controls (SP1 and TBP) mRNAs are expressed relative to cells treated with DMSO (vehicle). […] The levels of HSV viral IE (ICP0, ICP4, ICP22, and ICP27) and cellular control (SP1 and TBP) mRNAs are expressed relative to cells treated with DMSO (vehicle). […] HFF and Vero cells were then infected with HSV-1 (2.0 PFU per cell) for 1.5-hrs in the presence of inhibitor or DMSO. The levels of HSV viral IE (ICP0, ICP4, ICP22, and ICP27) and cellular control (SP1 and TBP) mRNAs are expressed relative to cells treated with DMSO (vehicle). […] HFF cells were treated with EZH1/2 catalytic inhibitor compound 4 (30 μM) or DMSO for 5-hrs. HFF cells were then mock or infected with HSV-1 (2.0 PFU per cell) for 1.5-hrs in the presence of inhibitor or DMSO. The levels of HSV viral IE (ICP4 and ICP27), control (SP1), and cellular innate interferon signaling (IFN-α, TNF-α, IL-8) mRNAs are expressed as absolute levels (absolute copies). […] HFF cells were treated with the EZH1/2 catalytic inhibitor compound 4 (5 μM) or DMSO for the indicated time as shown in FIG. 12. […] The levels of HSV viral IE (ICP0, ICP4, ICP22, and ICP27), control (TBP, ABAT, APOL3, UTX, and JMJD3), and cellular innate interferon signaling (IFN-α) mRNAs are expressed as ratios relative to cells treated with DMSO (vehicle). In this Example compound 4 was decreased to 5 μM and the duration of pretreatment was increased to 12, 24, and 48-hrs.

Assay [4] deals with HSV-1. The assay is described as follows: HSV-1 cellular and nuclear entry (viral DNA in total and nuclear fractions of HFF cells). Conditions: compound 1 35 μM, compound 4 30 μM, 5-hrs pretreatment, HSV-1 2.0 PFU per cell 1.5-hrs. As for the experimental part: HFF cells were treated with the EZH1/2 catalytic inhibitor compound 1 (35 μM), compound 4 (30 μM), or DMSO (vehicle) for 5-hrs. The HFF cells were then infected with HSV-1 (2.0 PFU per cell) for 1.5-hrs in the presence of the inhibitors or DMSO (vehicle). The levels of HSV viral DNA isolated from total and nuclear cellular fractions are expressed as ratios relative to DMSO (vehicle).

Take `CC[C@H](C)n1cc(C)c2c(C(=O)NCc3c(C)cc(C)[nH]c3=O)cc(-c3ccc(N4CCNCC4)nc3)cc21` [compound 4, GSK126]: the “antiviral activity (HSV IE mRNA) in Vero cells as compared to HFF (wild-type) cells” value with HSV-1 [1] is recorded as “lack of antiviral activity”. Besides, the “HSV reactivation from latency (viral yield per explanted trigeminal ganglia)” value with HSV-1 [2] is recorded as “block HSV reactivation from latency”. In addition, the “effect of increasing the duration of pretreatment on HSV IE expression” value in the assay with HSV-1 [3] (5 μM, pretreatment 12, 24, and 48-hrs) is given as “enhanced the suppression of HSV IE expression”. Also, in the assay with HSV-1 [3] (30 μM, 5-hrs), the “cellular control SP1 mRNA” value is reported as “no impact”. Besides, the “HSV viral IE expression (ICP4 and ICP27 mRNA)” value in the assay with HSV-1 [3] (30 μM, 5-hrs, HSV-1 2.0 PFU per cell 1.5-hrs) was “represses HSV viral IE expression”. Further, the “HSV-1 viral entry (total and nuclear)” value with HSV-1 [4] is listed as “no impact”.
